Measured values published in patent US9526766B2, “Potentiation of antibiotic treatment with a protein-lipid complex” (priority 2012, dated 2016).
“Also recorded” adds a separate entry of the source. Like-named read-outs stand apart in the source and are kept apart here.

Experiments:
[1] = system: Staphylococcus aureus biofilms; test: Static biofilm model, viable counts; format: cell-based; details: for Biofilm death / reduction in biofilm biomass: methicillin 1,000 μg/ml monotherapy, combination with 100 μg/ml ALAFAC; for Minimum antibiotic concentration for bactericidal (>3 log10) activity on biofilms: 12 hours, antibiotic alone
Protocol: Static Biofilm Model. Staphylococci were grown in TSB to mid-logarithmic phase (OD600=0.5), washed, and resuspended in fresh pre-warmed medium to a density of 2×10^4 CFU in 500 μl volume, and suspensions were used to seed polystyrene 24-well plates. Bacteria were cultured at 37° C. for 12 hours, after which biofilms were washed with PBS to eliminate planktonic bacteria and were exposed to TSB with indicated concentrations of ALAFAC and/or antibiotics for 24 hours at 37° C. Biofilms were then washed in PBS, sonicated and detached by scraping the surface in the presence of 100 μL PBS followed by a rinse with 100 μL PBS. Collected cells were vortexed twice for 20 seconds at high speed and the dispersed biofilm cells were first observed by microscopy to ensure proper dispersion and then diluted in a 10-fold dilution series where 100 μl of each dilution was plated on blood agar plates to determine viable CFUs per ml after overnight growth at 37° C. Colony counts from plates carrying 20-200 colonies were used to determine the viable counts and are reported as the total number of colony-forming units per biofilm.

Staphylococcus aureus = test: MIC by broth microdilution, antibiotics with and without ALAFAC; format: cell-based; details: antibiotic alone
Protocol: Methodology: Minimal inhibitory concentrations (MICs) were determined in 96-well microtiter plates using the microdilution method according to approved standards of the CLSI except that Todd-Hewitt medium supplemented with 0.5% yeast extract, which yields reproducible MIC results was used as the test medium for S. pneumoniae. For the remaining species Mueller-Hinton medium was used as indicated by the CLSI standard. Each well contained two-fold dilutions of antibiotic, was seeded with a final bacterial concentration of 10^5 CFU/mL, and was incubated for 18 h at 37° C. in a Synergy II microplate reader (Biotek, Winooski, Vt.) where the OD600 was recorded every 5 minutes to monitor bacterial growth. The MIC was defined as the lowest concentration of antimicrobial agent solution at which no increase in OD600 was detected.
In vitro susceptibility tests. Minimal inhibitory concentrations (MICs) were determined in 96-well microtiter plates using the microdilution method according to approved standards of the CLSI as described previously. However, rather than Mueller-Hinton broth, Tryptic soy broth (TSB) was used for susceptibility testing as it is the common media used for Staphylococcal growth, and as it has shown more consistent results for a variety of antimicrobials when tested against Staphylococci. […] A two-fold dilution series of antibiotics in triplicate and in the presence or absence of ALAFAC was prepared in 96 well microtiter plates, and each well was seeded with a final bacterial concentration of 10^5 CFU/mL, and was incubated for 24 h at 37° C. in a Synergy 2 microplate reader (Biotek, Winooski, Vt.) where the Optical Density at 600 nm (OD600) was recorded every 5 minutes to monitor bacterial growth. The MIC was defined as the lowest concentration of antimicrobial agent solution where no increase in OD600 was detected.

Streptococcus pneumoniae = test: Short-time kill assay on planktonic cultures; format: cell-based; details: for Minimum antibiotic concentration for bactericidal (>3 log10) activity, planktonic: within 4-6 hours, antibiotic alone
Protocol: Methodology: In late logarithmic growth phase, the bacteria were harvested by centrifugation at 12,000×g for 10 minutes and resuspended in phosphate-buffered saline (PBS; […], […], […], pH 7.4). Appropriate dilutions of the bacteria were suspended in PBS and treated with indicated concentrations of ALAFAC and/or antibiotics for various times. The effect on bacterial viability was assessed by plating serial dilutions of bacterial sample on tryptic soy agar plates containing 5% sheep blood (viable counts) and determining viable colony forming units after overnight growth at 37° C.
Short-time kill assays. In late logarithmic growth phase, the bacteria were harvested by centrifugation at 12,000×g for 10 minutes and resuspended in phosphate-buffered saline (PBS; 30 mM Na2HPO4, 10 mM KH2PO4, […], pH 7.4). Appropriate concentrations of the bacteria (around 10^8 colony forming units per ml) were suspended in PBS and treated with indicated concentrations of ALAFAC and/or antibiotics for various times. The effect on bacterial viability was assessed by plating serial dilutions of bacterial sample on tryptic soy agar plates containing 5% sheep blood (viable counts) and determining viable CFUs after overnight growth at 37° C.

[2] = system: S. pneumoniae nasopharyngeal colonization; test: Murine nasopharyngeal colonization model, intranasal treatment; format: in vivo, Streptococcus pneumoniae; details: for Minimum antibiotic concentration for bactericidal (>3 log10) activity on murine nasopharyngeal colonization: mice, within 12 hours, antibiotic alone; for Colonization level / bacterial burden: mice colonized with SP670 for 48 hours, penicillin up to 100 μg (5,000 μg/ml) intranasally, ALAFAC 50 μg, alone or combined, 12 hours
Protocol: Methodology: Six-week-old female BALB/cByJ mice from Jackson Laboratories (Bar Harbor, Me., U.S.A.) were maintained in filter-top cages on standard laboratory chow and water ad libitum until use. Mice were colonized as described previously. In short, 20 μl of a bacterial suspension containing 5×10^6 CFUs of EF3030 pneumococci, 1×10^8 CFUs of SP670 pneumococci, or 5×10^7 NRS70 methicillin-resistant S. aureus in PBS were pipetted into the nares of non-anesthetized mice. […] Colonization burden was then assessed after euthanizing the animals by enumerating viable bacteria from harvested nasopharyngeal tissue after the nasal wash. Nasopharyngeal tissue was dissected out as described by removing the upper skull bone, and harvesting the tissue present in the nasal conchae with forceps. Bacterial load was measured by determining viable plate counts from the homogenized tissue.
Mice were colonized as described. In short, 20 μl of a bacterial suspension containing 5×10^6 CFUs of EF3030 pneumococci in PBS or 1×10^8 CFUs of SP670 pneumococci in PBS were pipetted into the nares of non-anesthetized mice. […] Colonization burden was then assessed after euthanizing the animals by enumerating viable bacteria both in a nasopharyngeal lavage obtained by injecting 100 μL PBS in the trachea of mice and collecting it as it flowed out the nares, and from harvested nasopharyngeal tissue after the nasal wash. Nasopharyngeal tissue was dissected out as described by removing the upper skull bone, and harvesting the tissue present in the nasal conchae with forceps. Bacterial load was measured by determining viable plate counts from the nasal lavage or from homogenized tissue.

`COc1cccc(OC)c1C(=O)N[C@@H]1C(=O)N2[C@@H]1SC(C)(C)[C@@H]2C(=O)O` [Methicillin, methicillin] was tested, and the “Biofilm bactericidal activity, reduction in viable bacteria” value ([1]; MRSA NRS 70 and MSSA 11090306 biofilms, 24 hours, ALAFAC 200 μg/mL (12 μM), methicillin 250 μg/mL (660 μM), alone or combined) was “failed to induce bactericidal activity”, the “Biofilm death / reduction in biofilm biomass” value ([1]; MRSA NRS70 biofilm) was 0.16 log10 and the “Biofilm death / reduction in biofilm biomass” value ([1]; MSSA 11090306 biofilm) was 1 log10. For the same compound, the “Minimum antibiotic concentration for bactericidal (>3 log10) activity on biofilms” value ([1]; S. aureus 11090306 biofilm) was >1000 μg/ml, the “Minimum antibiotic concentration for bactericidal (>3 log10) activity on biofilms” value ([1]; S. aureus NRS70 biofilm) was >1000 μg/ml and the MIC (Staphylococcus aureus; Staphylococcus aureus, S. aureus 10307570, read-out: MIC) was 16 µg/mL. The MIC (Staphylococcus aureus; Staphylococcus aureus, S. aureus 11090306 (MSSA), read-out: MIC) was 2 µg/mL, the MIC (Staphylococcus aureus; Staphylococcus aureus, S. aureus NRS1, read-out: MIC) was > 128 µg/mL and the MIC (Staphylococcus aureus; Staphylococcus aureus, S. aureus NRS70, read-out: MIC) was 32 µg/mL. The MIC (Staphylococcus aureus; Staphylococcus aureus, S. aureus NRS71, read-out: MIC) was > 128 µg/mL, the MIC (Staphylococcus aureus; Staphylococcus aureus, S. aureus NRS100, read-out: MIC) was > 128 µg/mL and the MIC (Staphylococcus aureus; Staphylococcus aureus, S. aureus NRS123, read-out: MIC) was 32 µg/mL. It also gave an MIC (Staphylococcus aureus; Staphylococcus aureus, S. aureus NRS384, read-out: MIC) of 16 µg/mL.

`CC1(C)S[C@@H]2[C@H](NC(=O)Cc3ccccc3)C(=O)N2[C@H]1C(=O)O` [Penicillin, penicillin G] was tested, and the “Short-time killing (death of inoculum)” value (Streptococcus pneumoniae; D39, 4 hours, ALAFAC 50 μg/ml, penicillin G 20 μg/ml, alone or combined, 7.5 log10 inoculum) was “no bactericidal activity; also recorded: no death”, the Short-time killing (Streptococcus pneumoniae; D39, penicillin G alone at 5,000 μg/ml, 4 hours) was ≤ 2.6 log10 and the Short-time killing (Streptococcus pneumoniae; D39, penicillin alone at 50-fold higher concentration (1,000 μg/ml), 4 hours) was ≤ 2.6 log10. For the same compound, the Bactericidal activity alone (Streptococcus pneumoniae; D39 and EF3030, 1 hour, penicillin G up to 5,000 μg/ml, erythromycin up to 1,000 μg/ml) was “lacked any bactericidal activity”, the “Minimum antibiotic concentration for bactericidal (>3 log10) activity, planktonic” value (Streptococcus pneumoniae; S. pneumoniae D39) was >5,000 μg/ml and the “Minimum antibiotic concentration for bactericidal (>3 log10) activity, planktonic” value (Streptococcus pneumoniae; S. pneumoniae SP670) was >5,000 μg/ml. For the same compound, the Short-time killing (Streptococcus pneumoniae; SP670, penicillin 30 μg/mL alone or with ALAFAC 50 μg/mL, 4 hours) was “no bactericidal activity”, the “Minimum antibiotic concentration for bactericidal (>3 log10) activity on murine nasopharyngeal colonization” value ([2]; SP670) was >100 μg/dose and the “Colonization level / bacterial burden” value [2] was “no effect”. For the same compound, the “Colonization level / bacterial burden” value ([2]; listed as Penicillin G) was “no effect”, the “Colonization level / bacterial burden” value ([2]; listed as penicillin) was “no effect; also recorded: completely resistant” and the “Colonization level / bacterial burden” value ([2]; listed as penicillin G) was “no change in colonization”.

In the case of gentamicin, the Biofilm viability ([1]; NRS 1 and NRS 384 biofilms, ALAFAC 500 μg/ml (30 μM), gentamicin 50 μg/ml (105 μM), alone or combined) is reported as “Neither ALAFAC (500 μg/ml; 30 μM) nor gentamicin (50 μg/ml; 105 μM) had any effect”, the Short-time killing (Streptococcus pneumoniae; D39, 1 hour, ALAFAC 50 μg/ml, gentamicin 50 μg/ml, alone or combined, 7.7 log10 inoculum) is reported as “insignificant killing” and the “Minimum antibiotic concentration for bactericidal (>3 log10) activity, planktonic” value (Streptococcus pneumoniae; S. pneumoniae D39) is reported as >500 μg/ml. The “Minimum antibiotic concentration for bactericidal (>3 log10) activity, planktonic” value (Streptococcus pneumoniae; S. pneumoniae EF3030) was >500 μg/ml, the Short-time killing (Streptococcus pneumoniae; gentamicin alone at high concentrations, up to 1,000 μg/ml, 1 hour) was 1.4 log10 and the Short-time killing (Streptococcus pneumoniae; gentamicin alone at high concentrations, up to 1,000 μg/ml, 1 hour, listed as gentamicin) was ≤ 1.4 log10. For the same compound, the MIC (Staphylococcus aureus; S. aureus NRS1) was >128 µg/mL, the MIC (Staphylococcus aureus; S. aureus NRS384) was 1 µg/mL and the “Dose concentration required to eradicate nasal lavage-associated bacteria” value ([2]; EF3030, gentamicin alone) was 1,500 μg/ml. For the same compound, the “Minimum antibiotic concentration for bactericidal (>3 log10) activity on murine nasopharyngeal colonization” value ([2]; EF3030) was 100 μg/dose, the “Gentamicin dose at which reduction of bacterial burden starts” value ([2]; EF3030, nasal lavage, gentamicin alone) was 3 μg/mouse and the “Gentamicin dose at which reduction of bacterial burden starts” value ([2]; EF3030, nasopharyngeal tissues, gentamicin alone) was 10 μg/mouse.
